Results on nine compounds are retold here after publication PMC11574862 (The Journal of General Physiology, 2024).

Among the targets are VcGluP E125A (Vibrio cholerae, UniProt Q9KUT5, E125A); VcGluP M201A (Vibrio cholerae, UniProt Q9KUT5, M201A); VcGluP Y45A (Vibrio cholerae, UniProt Q9KUT5, Y45A); VcGluP Q93A (Vibrio cholerae, UniProt Q9KUT5, Q93A); VcGluP S75A (Vibrio cholerae, UniProt Q9KUT5, S75A); VcGluP Y200A (Vibrio cholerae, UniProt Q9KUT5, Y200A).
Holding throughout (assay type): binding
The target in assay [1] is T1, VC0430 (VcGluP) wildtype (Vibrio cholerae, UniProt Q9KUT5).
The target in assay [2] is T1, VC0430 (VcGluP) wildtype. The experiment in a line: biochemical.

SMILES strings stand for the structures. Values joined by “and” are separate entries in the source; they are usually repeats but may differ in a detail not shown here. Equal entries are not always repeated.

Broadly, the Kd is the free concentration of one partner at which half of the binding sites on the other are occupied at equilibrium, for simple one-to-one binding. A high value points to weaker binding.

For the compound `NCCCC[C@H](N)C(=O)O` [L-lysine], at VC0430 (VcGluP) wildtype [1], the “Average Tm” value came to 44.41 °C, the “Tm Replicate 1” value is 43.75 °C, the “Tm Replicate 2” value came out at 44.74 °C and the “Tm Replicate 3” value turned out to be 44.74 °C. Also, at VC0430 (VcGluP) wildtype [1], the “change in VC0430's Tm (Tm increase)” value is given as “no change”.

For `O=C(O)[C@@H]1CCC(O)=N1` [L-pyroglutamate], the “effect on VcGluP's stability (DSF)” value on VC0430 (VcGluP) wildtype [1] is listed as “enhanced VcGluP’s stability in a dose-dependent manner”. In addition, binding at VC0430 (VcGluP) wildtype [2] was put at a Kd of 50 ± 16 µM.

Turning to `NC(=O)CCC(N)C(=O)O` (stereo in doubt) [D-glutamine], on VC0430 (VcGluP) wildtype [1], the “Average Tm” value is 46.40 °C and 47.06 °C and 48.72 °C; the “Tm Replicate 1” value is 46.73 °C and 46.72 °C and 48.72 °C; the “Tm Replicate 2” value is 45.74 °C and 47.72 °C and 48.72 °C; the “Tm Replicate 3” value is 46.73 °C (2×) and 48.72 °C. The “fluorescence enhancement in titration (Kd could not be determined)” value at VC0430 (VcGluP) wildtype [2] is on record as “lack of fluorescence enhancement”.

Turning to `O=C(O)CCC(=O)C(=O)O` [α-ketoglutarate], on VC0430 (VcGluP) wildtype [1], the “Average Tm” value turned out to be 47.39 °C, the “Tm Replicate 1” value stood at 50.71 °C, the “Tm Replicate 2” value worked out at 45.74 °C and the “Tm Replicate 3” value amounted to 45.74 °C. Further, the “change in VC0430's Tm (Tm increase)” value at VC0430 (VcGluP) wildtype [1] was “no change”.

`N[C@@H](CCC(=O)O)C(=O)O` [L-glutamate]: the “ligand concentration giving maximum fluorescence enhancement” value at VcGluP E125A, at VcGluP M201A, on VcGluP Y45A, on VcGluP S75A and at VcGluP Y200A was not above 50 µM each time. Also, the “ligand concentration needed to saturate fluorescence enhancement” value at VcGluP Q93A is on record as “a higher concentration was required”. The compound also displayed a Kd at VC0430 (VcGluP) wildtype [2] of 0.065 ± 0.031 µM.

For `NC(=O)CC[C@H](N)C(=O)O` [L-glutamine], the “Tm Replicate 2” value on VC0430 (VcGluP) wildtype [1] was 50.70 °C and 53.68 °C and 55.67 °C and 50.71 °C. In addition, the Kd on VC0430 (VcGluP) wildtype [2] turned out to be 11 ± 2 µM.

As to `N[C@@H](CC(=O)O)C(=O)O` [L-aspartate], at VC0430 (VcGluP) wildtype [1], the “Average Tm” value amounted to 47.06 °C, the “Tm Replicate 1” value amounted to 47.72 °C, the “Tm Replicate 2” value turned out to be 45.74 °C and the “Tm Replicate 3” value came out at 47.73 °C. Also, the “change in VC0430's Tm (Tm increase)” value at VC0430 (VcGluP) wildtype [1] was “no change”.

As for `N[C@H](CCC(=O)O)C(=O)O` [D-glutamate], at VC0430 (VcGluP) wildtype [1], the “Average Tm” value is 58.65 °C, the “Tm Replicate 1” value stood at 58.65 °C, the “Tm Replicate 2” value amounted to 58.65 °C and the “Tm Replicate 3” value stood at 58.65 °C. At VC0430 (VcGluP) wildtype [2], this compound came in with a Kd of 24.5 ± 10.6 µM.

In the case of `O=C(O)CCCCC(=O)O` [adipate], at VC0430 (VcGluP) wildtype [1], the “Average Tm” value was 44.74 °C, the “Tm Replicate 1” value came out at 43.75 °C, the “Tm Replicate 2” value was 45.74 °C and the “Tm Replicate 3” value came to 44.74 °C. Moreover, the “change in VC0430's Tm (Tm increase)” value on VC0430 (VcGluP) wildtype [1] is reported as “no change”.
